Article PMC11990879, “Anticandidal Activity of Lipopeptides Containing an LL-37-Derived Peptide Fragment KR12” (Molecules, 2025)
≈ marks a conversion by molar mass, not a printed value. Like-named read-outs stand apart in the source and are kept apart here. Marks after values point to notes of the source that are not given here. Where a SMILES comes first, the peptide text is derived from it. Where no end group is shown, it is not given here. The star is where a group is joined. Benzoyl(4-Ph) = O=C(c1ccc(-c2ccccc2)cc1)*; Octanoyl = CCCCCCCC(=O)*; PhAc = O=C(Cc1ccccc1)*; Bz = O=C(c1ccccc1)*

Experiments:
[1] = tested on: C. tropicalis PCM 2680; experiment: microbe, parasite or virus in culture; assay type: cell-based, Candida tropicalis; conditions: MIC wells and two higher concentrations seeded on DSA, 48 h, 25 °C, read visually, three times
Protocol: (§1) Fungal strains were purchased from the Polish Collection of Microorganisms (Polish Academy of Science, Wroclaw, Poland). Four reference strains of Candida (C. albicans ATCC 10231, C. glabrata ATCC 15126, C. lypolytica PCM 2680, and C. tropicalis PCM 2680) were cultured on the Dextrose Sabouraud Agar (DSA, Neogen, Lansing, MI, USA). Before performing the assays, the fungi were cultured in a Sabouraud dextrose broth (DSB, Neogen, Lansing, MI, USA) for 48 h under aerobic conditions at 25 °C. Afterward, the fungal cultures were centrifuged (2500 rpm, 10 min) and resuspended in the appropriate liquid medium for appropriate inoculums for the performed assays.
(§2) The strains cultured described in Section 4.1 were suspended in the Roswell Park Memorial Institute 1640 Medium (RPMI, Sigma-Aldrich, St. Louis, MO, USA) at an initial inoculum of ca. 5 × 10^3 CFU/mL. The stock solutions (1024 mg/L) of tested compounds in RPMI were added to 96-well polystyrene plates and diluted serially to well no. 10, leaving wells 11 and 12 for fertility and sterility controls. The tested Candida strains were exposed to graded concentrations (range 0.5–256 mg/L) of the lipopeptides and conventional antifungals (benzalkonium chloride, fluconazole, and nystatin) for 48 h under aerobic conditions at 25 °C. After incubation, the results were read visually.
(§3) Then the results were read visually. Both MIC as well as the MFC assays were performed threetimes on three different days.

[2] = tested on: C. glabrata ATCC 15126; experiment: microbe, parasite or virus in culture; assay type: cell-based, Candida glabrata; conditions: MIC wells and two higher concentrations seeded on DSA, 48 h, 25 °C, read visually, three times
Protocol: as §1, §2, §3

[3] = tested on: C. glabrata ATCC 15126; experiment: microbe, parasite or virus in culture; assay type: cell-based, Candida glabrata; conditions: first C. glabrata column; RPMI 1640, inoculum ca. 5 × 10^3 CFU/mL, range 0.5–256 mg/L, 48 h, 25 °C, read visually, three times on three days
Protocol: as §1, §2

[4] = tested on: C. albicans ATCC 10231; experiment: microbe, parasite or virus in culture; assay type: cell-based, Candida albicans; conditions: for Minimum inhibitory concentration (MIC), C. albicans: RPMI 1640, inoculum ca. 5 × 10^3 CFU/mL, range 0.5–256 mg/L, 48 h, 25 °C, read visually, three times on three days
Protocol: as §1, §2

[5] = tested on: C. lypolytica PCM 2680; experiment: microbe, parasite or virus in culture; assay type: cell-based, Candida lipolytica; conditions: MIC wells and two higher concentrations seeded on DSA, 48 h, 25 °C, read visually, three times
Protocol: as §1, §2, §3

[6] = tested on: C. tropicalis PCM 2680; experiment: microbe, parasite or virus in culture; assay type: cell-based, Candida tropicalis; conditions: for Minimum inhibitory concentration (MIC), C. tropicalis: RPMI 1640, inoculum ca. 5 × 10^3 CFU/mL, range 0.5–256 mg/L, 48 h, 25 °C, read visually, three times on three days
Protocol: as §1, §2

[7] = tested on: C. albicans ATCC 10231; experiment: microbe, parasite or virus in culture; assay type: cell-based, Candida albicans; conditions: MIC wells and two higher concentrations seeded on DSA, 48 h, 25 °C, read visually, three times
Protocol: as §1, §2, §3

[8] = tested on: C. lypolytica PCM 2680; experiment: microbe, parasite or virus in culture; assay type: cell-based, Candida lipolytica; conditions: RPMI 1640, inoculum ca. 5 × 10^3 CFU/mL, range 0.5–256 mg/L, 48 h, 25 °C, read visually, three times on three days
Protocol: as §1, §2

[9] = tested on: human red blood cells; conditions: cited from earlier work
Text: Table 2 Minimum inhibitory concentrations (MIC) and minimum fungicidal concentrations (MFC) determined for peptides and reference antifungals [g/L]. The highest antimicrobial activity is marked in green, medium values in yellow, while the weakest antifungal activity is marked in red. Minimum hemolytic concentration (MHC5%—causing hemolysis of 5% of human red blood cells) determined in previous stu | column: MHC5%

[10] = tested on: C. albicans biofilms cultured on polystyrene; assay type: cell-based, Candida albicans
Protocol: as §1
Fungal suspensions in DSB were added to the wells at initial inoculums of ca. 5 × 10^6 CFU/mL and incubated under aerobic conditions, at 25 °C for 24 h, 48 h, and 72 h, in order to grow candidal biofilms of different maturity. After the appropriate time of incubation, the wells were washed with phosphoric buffered (PBS), and fresh RPMI medium supplemented with antifungals and the lipopeptides at graded concentrations (range […]) were added. The fungal biofilms were exposed to the compounds for 24 h (aerobic conditions, 25 °C). After the exposure to antifungals, the content of the wells was aspirated and a 0.01% solution of resazurin (Sigma-Aldrich, St. Louis, MO, USA) in DSB was added. Resazurin (blue) was applied as a cell viability reagent, which upon contact with living cells is reduced to a pink resorufin. The samples with the dye were incubated for 1 h at 25 °C and the absorbance was measured at 570 and 600 nm with a microplate reader (Thermo Fisher Scientific, Waltham, MA, USA). The assays were performed four times on four different days. The results are presented as the means of the measured percentage of metabolic activity (MA) of fungi in the well when compared with positive (sample with Candida in DSB) and negative controls (pure DSB), which were taken as 100% and 0%, respectively. The MA of Candida in the samples was measured according to the following formula:MA(%) = (ΔAbs of sample − ΔAbs of negative control)/(ΔAbs of positive control − ΔAbs of negative control);(1) ΔAbs = absorbance at 570 nm − absorbance at 600 nm.(2)
The MBEC was taken as the lowest concentration of antifungal which allowed us to reduce the metabolism of fungal cells to 10% (or less) of the positive control.

[11] = tested on: Candida strains (C. albicans, C. glabrata, C. lipolytica, C. tropicalis); assay type: cell-based; conditions: for Fungicidal activity (MFC relative to MIC): MFCs equal to or twice as high as the corresponding MICs
Protocol: as §1, §2, §3

[12] = human red blood cells, determined in previous studies, ref [13],[14]
[13] = biofilms cultured on polystyrene, 24 h
[14] = biofilms cultured on polystyrene, 48 h
[15] = biofilms cultured on polystyrene, 72 h
[16] = C. albicans biofilm cultured on polystyrene for 24 h, exposure 24 h, 25 °C, RPMI, resazurin, metabolic activity reduced to 10% or less, four times on four days
[17] = C. albicans biofilm cultured on polystyrene for 48 h, exposure 24 h, 25 °C, RPMI, resazurin, metabolic activity reduced to 10% or less, four times on four days
[18] = C. albicans biofilm cultured on polystyrene for 72 h, exposure 24 h, 25 °C, RPMI, resazurin, metabolic activity reduced to 10% or less, four times on four days
[19] = no inhibition at the highest concentration applied

Compound: CC[C@H](C)[C@H](NC(=O)[C@H](CCCNC(=N)N)NC(=O)[C@H](CCC(N)=O)NC(=O)[C@@H](NC(=O)[C@@H](NC(=O)[C@H](CCCNC(=N)N)NC(=O)[C@H](CCCCN)NC(=O)Cc1ccccc1)[C@@H](C)CC)C(C)C)C(=O)N[C@@H](CCCCN)C(=O)N[C@@H](CC(=O)O)C(=O)N[C@@H](Cc1ccccc1)C(=O)N[C@@H](CC(C)C)C(=O)N[C@@H](CCCNC(=N)N)C(N)=O [XXI, Phenylacetic acid-KR12-NH2] (PhAc-KRIVQRIKDFLR-NH2)
- Minimum fungicidal concentration (MFC), C. tropicalis [1]: 16 µg/mL (≈ 9.47 µM)
- Minimum fungicidal concentration (MFC), C. glabrata [2]: 256 µg/mL (≈ 152 µM)
- Minimum inhibitory concentration (MIC), C. glabrata [3]: 256 µg/mL (≈ 152 µM)
- Minimum inhibitory concentration (MIC), C. albicans [4]: 64 µg/mL (≈ 37.9 µM)
- Minimum fungicidal concentration (MFC), C. lipolytica [5]: 16 µg/mL (≈ 9.47 µM)
- Minimum inhibitory concentration (MIC), C. tropicalis [6]: 8 µg/mL (≈ 4.74 µM)
- Minimum fungicidal concentration (MFC), C. albicans [7]: 64 µg/mL (≈ 37.9 µM)
- Minimum inhibitory concentration (MIC), C. lipolytica [8]: 16 µg/mL (≈ 9.47 µM)
- MHC5% (minimum hemolytic concentration causing hemolysis of 5% of human red blood cells) [9, 12]: 256 g/L

Compound: CC[C@H](C)[C@H](NC(=O)[C@H](CCCNC(=N)N)NC(=O)[C@H](CCC(N)=O)NC(=O)[C@@H](NC(=O)[C@@H](NC(=O)[C@H](CCCNC(=N)N)NC(=O)[C@H](CCCCN)NC(=O)c1ccc(-c2ccccc2)cc1)[C@@H](C)CC)C(C)C)C(=O)N[C@@H](CCCCN)C(=O)N[C@@H](CC(=O)O)C(=O)N[C@@H](Cc1ccccc1)C(=O)N[C@@H](CC(C)C)C(=O)N[C@@H](CCCNC(=N)N)C(N)=O [XXV, 4-Phenylbenzoic acid-KR12-NH2] ({Benzoyl(4-Ph)}-KRIVQRIKDFLR-NH2)
- MBEC 24 h [10, 13]: >512 * mg/L
- MBEC 48 h [10, 14]: >512 * mg/L
- MBEC 72 h [10, 15]: >512 * mg/L
- MHC5% (minimum hemolytic concentration causing hemolysis of 5% of human red blood cells) [9]: 32 g/L
- MIC, range over the tested strains ([11]; 48 h): 4 to 16 µg/mL

Compound: C[C@@H]1[C@H](O)[C@@H](C)/C=C/C=C/CC/C=C/C=C/C=C/C=C/C(O[C@H]2O[C@H](C)[C@@H](O)[C@H](N)[C@@H]2O)CC2O[C@](O)(CC(O)C(O)CCC(O)CC(O)CC(O)CC(=O)O[C@H]1C)CC(O)C2C(=O)O (stereo partly shown) [Nystatin, nystatin, reference compound]
- Antibiofilm concentration (256 mg/L) relative to the determined MIC ([10]; C. albicans biofilm): over 100 times
- MBEC 24 h [10, 16]: 256 mg/L
- MBEC 48 h [10, 17]: 256 mg/L
- MBEC 72 h [10, 18]: 256 mg/L
- Fungicidal activity (MFC relative to MIC) [11]: fungicidal activity against all Candida strains

Compound: CCCCCCCC(=O)NCCCC[C@H](NC(=O)CCCCCCC)C(=O)N[C@@H](CCCNC(=N)N)C(=O)N[C@H](C(=O)N[C@H](C(=O)N[C@@H](CCC(N)=O)C(=O)N[C@@H](CCCNC(=N)N)C(=O)N[C@H](C(=O)N[C@@H](CCCCN)C(=O)N[C@@H](CC(=O)O)C(=O)N[C@@H](Cc1ccccc1)C(=O)N[C@@H](CC(C)C)C(=O)N[C@@H](CCCNC(=N)N)C(N)=O)[C@@H](C)CC)C(C)C)[C@@H](C)CC [XVI, C8^α,C8^ε-KR12-NH2] (Octanoyl-K(Octanoyl)RIVQRIKDFLR-NH2)
- Growth inhibition of C. albicans (MIC) [4, 19]: resistant
- Growth inhibition of C. tropicalis (MIC) [6, 19]: resistant
- MHC5% (minimum hemolytic concentration causing hemolysis of 5% of human red blood cells) [9]: >256 * g/L

Compound: KRIVQRIKDFLR-NH2 [X, KR12-NH2]
- MBEC 24 h [10, 13]: >512 * mg/L
- MBEC 48 h [10, 14]: >512 * mg/L
- MBEC 72 h [10, 15]: >512 * mg/L
- MHC5% (minimum hemolytic concentration causing hemolysis of 5% of human red blood cells) [9]: >256 * g/L

Compound: CC[C@H](C)[C@H](NC(=O)[C@H](CCCNC(=N)N)NC(=O)[C@H](CCC(N)=O)NC(=O)[C@@H](NC(=O)[C@@H](NC(=O)[C@H](CCCNC(=N)N)NC(=O)[C@H](CCCCN)NC(=O)c1ccccc1)[C@@H](C)CC)C(C)C)C(=O)N[C@@H](CCCCN)C(=O)N[C@@H](CC(=O)O)C(=O)N[C@@H](Cc1ccccc1)C(=O)N[C@@H](CC(C)C)C(=O)N[C@@H](CCCNC(=N)N)C(N)=O [VIII, Benzoic acid-KR12-NH2] (Bz-KRIVQRIKDFLR-NH2)
- Minimum fungicidal concentration (MFC), C. tropicalis [1]: 16 µg/mL (≈ 9.55 µM)
- Minimum fungicidal concentration (MFC), C. glabrata [2]: 256 µg/mL (≈ 153 µM)
- Minimum inhibitory concentration (MIC), C. glabrata [3]: 256 µg/mL (≈ 153 µM)
- Minimum inhibitory concentration (MIC), C. albicans [4]: 64 µg/mL (≈ 38.2 µM)
- Minimum fungicidal concentration (MFC), C. lipolytica [5]: 32 µg/mL (≈ 19.1 µM)
- Minimum inhibitory concentration (MIC), C. tropicalis [6]: 8 µg/mL (≈ 4.78 µM)
- Minimum fungicidal concentration (MFC), C. albicans [7]: 64 µg/mL (≈ 38.2 µM)
- Minimum inhibitory concentration (MIC), C. lipolytica [8]: 32 µg/mL (≈ 19.1 µM)
- MHC5% (minimum hemolytic concentration causing hemolysis of 5% of human red blood cells) [9, 12]: >256 * g/L

Compound: benzalkonium chloride [reference compound]
- Minimum fungicidal concentration (MFC), C. tropicalis [1]: 2 µg/mL
- Minimum fungicidal concentration (MFC), C. glabrata [2]: 2 µg/mL
- Minimum inhibitory concentration (MIC), C. glabrata [3]: 1 µg/mL
- Minimum inhibitory concentration (MIC), C. albicans [4]: 2 µg/mL
- Minimum fungicidal concentration (MFC), C. lipolytica [5]: 2 µg/mL
- MBEC 24 h [10, 16]: 64 mg/L
- MBEC 48 h [10, 17]: 128 mg/L
- MBEC 72 h [10, 18]: 128 mg/L
- Concentration effective against 48–72 h biofilms relative to MIC ([10]; C. albicans, 48–72 h biofilms, MBEC/MIC): > 60 times
- Concentration effective against 24 h biofilm relative to MIC ([10]; C. albicans, 24 h biofilm, MBEC/MIC): over 30 times
- Minimum inhibitory concentration (MIC), C. tropicalis [6]: 0.5 µg/mL
- Minimum fungicidal concentration (MFC), C. albicans [7]: 4 µg/mL
- Minimum inhibitory concentration (MIC), C. lipolytica [8]: 1 µg/mL
- Fungicidal activity (MFC relative to MIC) [11]: fungicidal activity against all Candida strains
